This is an account of results in patent publication US20100040738A1, “Extension Of Beverage Shelf-Stability By Solute-Ligand Complexes” (PepsiCo., Inc., priority 2008, published 2010).

Converted amounts (≈) assume the structure as drawn. Like-named read-outs stand apart in the source and are kept apart here. Bounds are passed on as bounds.

In one series the test system is spoilage organisms. Kind of series: MIC of antimicrobial candidates (Table II). The format is cell-based. On the procedure: “Minimal inhibitory concentration” (MIC) is another term for which no standard time period is included in the definition.
(§1) In each of the examples below, the period of incubation is 16 weeks which relates to the standard shelf life period for beverages distributed at ambient temperature. If a chemical simply retards growth for a period less than 16 weeks, then it will not fulfill the need of the manufacturer. The concentration of the chemical employed to prohibit spoilage is often reported as the Minimum Inhibitory Concentration (MIC). The MIC value of a candidate compound for use as a beverage preservative is the concentration of the candidate which permits the beverage to remain free of spoilage for a period of 16 weeks.

A short description of series [1]: Solubility limit in model beverage system, non-complex form or cyclodextrin complex. The following applies: for solubility limit / limit of solubility in beverage: non-complex form; for limit of solubility in beverage: across test beverages. Type of series: physicochemical. On the procedure: The base composition of the model beverage per liter is:
A model high acid beverage system (pH <4.6) of 10% juice content was prepared to test efficacy of methoxycinnamate either in the non-complex form or as the alpha (α) or beta (β) cyclodextrin-included (complex) form. The base composition of the model beverage per liter is:
A model low acid beverage system (pH ≧4.6) with high water activity (>0.97) was prepared to test efficacy of methoxycinnamate either in the non-complex form or as the alpha (α) or beta (β) cyclodextrin-included (complex) form. The base composition of the model beverage per liter is:
A model high acid beverage system (pH <4.6) of 10% juice content was prepared to test efficacy of trans, trans 2,4 decadienal either in the non-complex form or as the alpha (α) or beta (β) cyclodextrin-included (complex) form. The base composition of the model beverage per liter is:
A model low acid beverage system (pH ≧4.6) with high water activity (>0.97) was prepared to test efficacy of trans, trans 2,4 decadienal either in the non-complex form or as the alpha (α) or beta (β) cyclodextrin-included (complex) form. The base composition of the model beverage per liter is: […]

Series [2] has as its system Saccharomyces cerevisiae, Zygosaccharomyces balii and Zygosaccharomyces bisporus. Kind of series: Inhibition of growth of 3 spoilage yeast in model beverage, 16 weeks incubation. Type of series: cell-based. The following applies: for amount in complex required to inhibit growth of 3 different spoilage yeast: in complex with alpha or beta cyclodextrin. Here is the method: as §1
(§2) The base composition of the model beverage per liter is: […]
as §2
A model high acid beverage system (pH <4.6) of 10% juice content was prepared to test efficacy of methoxycinnamate either in the non-complex form or as the alpha (α) or beta (β) cyclodextrin-included (complex) form. The base composition of the model beverage per liter is: […]

The mark [3] stands for this setting: high acid model beverage pH 3.4, 5% grape and 5% apple juice (Example 5).
[4] abbreviates: low acid model tea beverage pH 5.3 (Examples 4 and 6).
[5] abbreviates: at limit of solubility, summary of examples.
[6] abbreviates: at solubility limit concentration, low acid model tea beverage pH 5.3 (Examples 4 and 6).
Where [7] appears, read: in complex with α-cyclodextrin, low acid model tea beverage pH 5.3 (Examples 4 and 6).
Where [8] appears, read: in complex with β-cyclodextrin, low acid model tea beverage pH 5.3 (Examples 4 and 6).
[9] abbreviates: high acid model beverage pH 3.4, 10% grape juice (Example 3).

On to `O=C(O)CCCC1CCCCC1` [Cyclohexanebutyric acid], for which the MIC in the series on spoilage organisms (2688 h, read-out: MIC) was 68 µg/mL.
For `CCCCC/C=C/C=C/C=O` [Trans, trans, 2,4 decadienal], the MIC with spoilage organisms was 8 ppm. For the same compound, the “solubility in the form of a complex with alpha or beta cyclodextrin” value in series [1] (setting [3]), in series [1] (setting [4]) and in series [1] (summary of examples) was no more than 280 µg/mL in each case. Besides, the solubility limit amounted to 5.4 µg/mL (≈ 35.5 µM) in series [1] (setting [3]) and 5.8 µg/mL (≈ 38.1 µM) in series [1] (setting [4]). For the same compound, the “limit of solubility in beverage” value in series [1] (summary of examples) worked out at 57 µg/mL. Further, the “effective as a stand alone chemical preservative” value is listed as “not effective” in series [2] (setting [5]); “not effective” in series [2] (at solubility limit concentration, high acid model beverage pH 3.4, 5% grape and 5% apple juice (Example 5)); “did not prove effective” in series [2] (setting [6]). For the same compound, the “amount in complex required to inhibit growth of 3 different spoilage yeast” value in series [2] (summary of examples) is given as 57-124 ppm. Further, the “amount required to inhibit growth of 3 different spoilage yeast” value was determined as 60 mg/L in series [2] (in complex with α-cyclodextrin, high acid model beverage pH 3.4, 5% grape and 5% apple juice (Example 5)); 57 mg/L in series [2] (setting [7]); 125 mg/L in series [2] (in complex with β-cyclodextrin, high acid model beverage pH 3.4, 5% grape and 5% apple juice (Example 5)); 123 mg/L in series [2] (setting [8]).
Take `CCCOC(=O)c1ccccc1` [Propyl benzoate]: the MIC in the series on spoilage organisms (2688 h, read-out: MIC) was found to be 66 µg/mL.
On the same count and under the same terms, in the case of `CCCCCCCCC(=O)O` [Nonanoic acid] it was 63 µg/mL.
Turning to `CCCOC(=O)c1ccc(O)cc1` [propyl paraben, Propyl paraban], the “amount in complex required to inhibit growth of 3 different spoilage yeast” value in series [2] (summary of examples) is 510-600 ppm. Also, the “amount required to inhibit growth of 3 different spoilage yeast” value is listed as 510 mg/L in series [2] (in complex with α-cyclodextrin, high acid model beverage pH 3.4, 10% apple juice (Example 1)); 510 mg/L in series [2] (in complex with α-cyclodextrin, low acid model beverage pH 5.8 (Example 2)); 600 mg/L in series [2] (in complex with β-cyclodextrin, high acid model beverage pH 3.4, 10% apple juice (Example 1)); 650 mg/L in series [2] (in complex with β-cyclodextrin, low acid model beverage pH 5.8 (Example 2)).
For the compound `COc1ccccc1C=CC=O` [o-methoxycinnamylaldehyde], in the series with spoilage organisms, the MIC is 58 ppm.
Turning to methoxycinnamate, the “solubility in the form of a complex with alpha or beta cyclodextrin” value in series [1] (setting [9]) was no more than 3690 µg/mL; in series [1] (setting [4]) it was no more than 3411 µg/mL; in series [1] (summary of examples) it was no more than 3600 µg/mL. Moreover, the solubility limit in series [1] (setting [9]) was 498 µg/mL; in series [1] (setting [4]), 600 µg/mL. Moreover, in series [1] (summary of examples), the “limit of solubility in beverage” value lay in the range of 498 to 600 µg/mL. The “effective as a stand alone chemical preservative” value in series [2] (setting [5]) is on record as “not effective”; in series [2] (at solubility limit concentration, high acid model beverage pH 3.4, 10% grape juice (Example 3)), “not effective”; in series [2] (setting [6]) it was “did not prove effective”. In addition, in series [2] (summary of examples), the “amount in complex required to inhibit growth of 3 different spoilage yeast” value was 400-807 ppm. Besides, the “amount required to inhibit growth of 3 different spoilage yeast” value in series [2] (in complex with α-cyclodextrin, high acid model beverage pH 3.4, 10% grape juice (Example 3)) came to 800 mg/L; in series [2] (setting [7]) it was 800 mg/L; in series [2] (in complex with β-cyclodextrin, high acid model beverage pH 3.4, 10% grape juice (Example 3)), 420 mg/L; in series [2] (setting [8]), 420 mg/L. The MIC in series [2] (in complex with β-cyclodextrin, summary of examples) is 400 µg/mL; in series [2] (non-complex form, summary of examples), greater than 600 µg/mL.
As to `C/C(C=O)=C\c1ccccc1` [methyl trans cinnamylaldehyde], the MIC in the series on spoilage organisms is 58.4 ppm.
Still for that read-out and setting: to `CCCCCCCC1CCC(=O)O1` (stereo not drawn) [Undecalactone] belongs 28 ppm.
With `Cc1ccc(C(C)C)c(O)c1` [thymol], in the series with spoilage organisms (2688 h, read-out: MIC), the MIC was determined as 250 µg/mL.
In the case of `CCCCCCCCCC=O` [Decanal], in the series on spoilage organisms (2688 h, read-out: MIC), the MIC was found to be 47 µg/mL.
In the case of `CCCCCC1CCC(=O)O1` (stereo not drawn) [Nonanoic lactone], the MIC with spoilage organisms is given as 63 ppm.
With `C=C(C)C1CC=C(C=O)CC1` (stereo not drawn) [perillaldehyde], the MIC in the series with spoilage organisms (2688 h, read-out: MIC) turned out to be 500 µg/mL.
On to `C/C=C/C=C/C(=O)O` [Sorbic acid], for which the MIC in the series with spoilage organisms (2688 h, read-out: MIC) was 1200 µg/mL.
For `O=CC=Cc1ccccc1` [Cinnamaldehyde], in the series with spoilage organisms (2688 h, read-out: MIC), the MIC was determined as 66 µg/mL.
Consider `CCCCCCCCC(=O)OC` [Methyl nonaoate], for which the MIC in the series with spoilage organisms amounted to 90 ppm.
The same measure, in the same setting: to `O=C(OCc1ccccc1)c1ccc(O)cc1` [Benzyl-4-hydroxbenzoate] belongs 68 ppm.
Consider `CCCCCCCCCCO` [1-Decanol], for which the MIC with spoilage organisms (2688 h, read-out: MIC) came out at 24 µg/mL.
Regarding `CCCCCCCCCCC=O` [Undecanal], the MIC in the series with spoilage organisms (2688 h, read-out: MIC) amounted to 34 µg/mL.
For the compound `CC(=O)OCCC1CCCCC1` [2-Cyclohexylethyl acetate], in the series on spoilage organisms (2688 h, read-out: MIC), the MIC was 102 µg/mL.
As for `O=C(O)C=Cc1ccccc1` [Cinnamic acid], the MIC in the series on spoilage organisms (2688 h, read-out: MIC) worked out at 300 µg/mL.
